Measured values as given in patent publication US11459546B2, “Method for producing somatic cell, somatic cell, and composition” (Kyoto Prefectural Public University Corporation, priority 2016, dated 2022).

System: Human skin fibroblasts
Experiment: Direct transformation from human fibroblast to brown adipocyte (Example B)
Format: cell-based
Design: key: the mark “++++” indicates that almost all of the fibroblasts were transformed into brown adipocytes; +++: the larger the number of the marks “+” is, the higher the transformation efficiency is; ++: the larger the number of the marks “+” is, the higher the transformation efficiency is; the larger the number of the marks “+” is, the higher the transformation efficiency is; The mark “−” indicates that the fibroblasts were not transformed into brown adipocytes
Conditions: fibroblast of subject; judged from UCP1 immunostaining and cell states, FIG. 4 to FIG. 8
Description: Human skin fibroblasts were purchased from DS Pharma Biomedical Co., Ltd. Cell information is described in the following table.
About 1.5×10^5 cells were seeded on a 35 mm dish containing a high-glucose DMEM medium (11995-065, Gibco, MA, USA) to which 10% fetal bovine serum (FBS) (HyClone, Utah, USA) and penicillin/streptomycin (Gibco) were added.
After each of the human fibroblasts reached 80-90% confluence, the medium was changed to start direct transformation into the brown adipocyte. The adipocyte medium for use was prepared by adding an additive reagent containing ascorbic acid, biotin, pantothenic acid, triiodothyronine, octanoic acid, insulin, dexamethasone, IBLMX (3-isobutyl-1-methylxanthine), FBS and penicillin/streptomycin (MK425, Takara Bio Inc.) to a high-glucose DMEM medium (043-30085, Wako Pure Chemical Industries, Ltd.). […]
Immunocytochemistry was performed in accordance with a previous report (Dai P, et al. J Clin Biochem Nutr. 2015; 56 (3): 166-70). […] All images were acquired using a fluorescence microscope (Axio Vert. A1, Carl Zeiss, Oberkochen, Germany). […]
The efficiencies of transformation into the adipocyte-like cells with various combinations of the compounds were evaluated from the results shown in FIG. 4 to FIG. 8, and the results are shown in the following table. […]

CN(CCOc1ccc(CC2SC(=O)NC2=O)cc1)c1ccccn1 (stereo not shown) [Ro only, Rosiglitazone]
Efficiency (transformation into the adipocyte-like cells): −
